Patent US5268003A (priority 1992, dated 1993)

Key:
[1] = Bleaching of tea (BC-1) stained cotton in Terg-o-tometer, reflectance change; conditions: 10 ppm A.O.; for BC-1 ΔΔR pH 8: pH 8, 40° C.; for BC-1 ΔΔR pH 8 / BC-1 ΔΔR pH 9 / BC-1 ΔΔR pH 10: P-Surf base (1.5 g/l), 15 minutes, average of duplicates; for BC-1 ΔΔR pH 9: pH 9, 40° C.; for BC-1 ΔΔR pH 10: pH 10, 40° C.
Method: (§1) The bleaching performance of the peracids was evaluated against common stains such as tea (BC-1) and ink. Typically the cotton test pieces (3"×4") were stained with the appropriate stain and washed in a Terg-o-tometer for 15 minutes at 40° C. in a 500 mL aqueous wash solution. Dosage of the peracid was 10 ppm active oxygen.
Stain bleaching was measured reflectometrically using a Colorgard System/05 Reflectometer. Bleaching was indicated by an increase in reflectance, reported as ΔΔR. In general a ΔΔR of one unit is perceivable in a paired comparison while ΔΔR of two units is perceivable monadically. In reporting the reflectance change, the change in reflectance caused by general detergency has been accounted for. Thus ΔΔR can actually be expressed as:
ΔΔR=ΔR peracid+detergent-ΔR detergent
where ΔR is the reflectance difference of the stained fabric after and before washing.
BC-1 experiments were run in duplicate and the value shown is an average. In order to ensure that the solids were as finely dispersed as possible, one of the BC-1 experiments of each pair was usually conducted by predissolving the peracid in 1 ml of DMF; if this value was within 1 unit of the experiment using finely ground peracid, the values were averaged.
(§2) Bleaching Results at 40° C., 10 ppm A.O., P-Surf base (1.5 g

[2] = heavy-duty liquid detergent, pH 4.5
[3] = Bleaching of ink stained cotton in Terg-o-tometer, change in B-axis of Hunter color scale; conditions: pH 9, 40° C., 10 ppm A.O., P-Surf base (1.5 g/l), 15 minutes; corrected for detergent control
Method: as §1
Ink stain bleaching was measured as ΔB where the quantity ΔB is the change in the B-axis of the Hunter color scale. The ink stain is initially blue and loses color with bleaching thereby increasing the value of ΔB. Recorded ΔΔB values are ΔB values corrected for the cleaning accomplished by the detergent control.
as §2

Which results are given for O=C(Nc1ccc(C(=O)OO)cc1)c1ccc(C(=O)Nc2ccc(C(=O)OO)cc2)cc1 [DPCAT, N,N'-Di(4-Percarboxyaniline)terephthalate]?
BC-1 ΔΔR pH 8 [1]: 1.6; BC-1 ΔΔR pH 9 [1]: 1.5; BC-1 ΔΔR pH 10 [1]: 2.3; t1/2 at 40° C. [2]: 65 days; INK ΔΔB pH 9 [3]: 3.1

What does the source list for O=C(N[C@H]1CC[C@H](NC(=O)c2ccc(C(=O)OO)cc2)CC1)c1ccc(C(=O)OO)cc1 [PCBHEX, N,N'-Di(4-percarboxybenzoyl)-1,4-diaminocyclohexane]?
BC-1 ΔΔR pH 8 [1]: 0.9; BC-1 ΔΔR pH 9 [1]: 2.1; BC-1 ΔΔR pH 10 [1]: 3.1; INK ΔΔB pH 9 [3]: 4.2

What does the source list for O=C(CCCCC(=O)OO)Nc1ccc(NC(=O)CCCCC(=O)OO)cc1 [DPAPD, N,N'-Di(percarboxyadipoyl)phenylenediamine]?
BC-1 ΔΔR pH 8 [1]: 7.1; BC-1 ΔΔR pH 9 [1]: 6.7; BC-1 ΔΔR pH 10 [1]: 4.0; t1/2 at 40° C. [2]: 32 days; INK ΔΔB pH 9 [3]: 8.0

What does the source list for O=C(CCC(=O)Nc1ccc(C(=O)OO)cc1)Nc1ccc(C(=O)OO)cc1 [SDPCA, N,N'-Succinoyl-di(4-percarboxy)aniline]?
BC-1 ΔΔR pH 8 [1]: 2.7; BC-1 ΔΔR pH 9 [1]: 3.3; BC-1 ΔΔR pH 10 [1]: 5.0; t1/2 at 40° C. [2]: 43 days; INK ΔΔB pH 9 [3]: 16.8

With O=C(NCCNC(=O)c1ccc(C(=O)OO)cc1)c1ccc(C(=O)OO)cc1 [PCBED, N,N'-Di(4-Percarboxybenzoyl)ethylenediamine] as the compound, how does the “BC-1 ΔΔR pH 8” value [1] read?
The value was 10.6.

What about the “BC-1 ΔΔR pH 9” value [1] of the same compound?
The value was 9.0.

What about the “BC-1 ΔΔR pH 10” value [1] of the same compound?
The value was 5.9.

What about the “INK ΔΔB pH 9” value [3] of the same compound?
Its value is 19.1.

Which “BC-1 ΔΔR pH 8” value [1] does the source give for O=C(OO)c1ccc(C(=O)N2CCN(C(=O)c3ccc(C(=O)OO)cc3)CC2)cc1 [PCBPIP, N,N'-Di(4-percarboxybenzoyl)piperazine] here?
The value was 3.0.

What about the “BC-1 ΔΔR pH 9” value [1] of the same compound?
Its value is 2.9.

And the “BC-1 ΔΔR pH 10” value [1]?
The value was 3.1.

What about the “t1/2 at 40° C.” value [2] of the same compound?
The value was 79 days.

And the “INK ΔΔB pH 9” value [3]?
The value was 9.7.

For O=C(CCCCCN1C(=O)c2ccccc2C1=O)OO [PAP, N-phthaloylamino peroxycaproic acid, reference compound], which “t1/2 at 40° C.” value [2] is on record?
The value was 3 days.

For O=C(NCCCCNC(=O)c1ccc(C(=O)OO)cc1)c1ccc(C(=O)OO)cc1 [PCBBD, N,N'-Di(4-percarboxybenzoyl)-1,4-butanediamine], which “BC-1 ΔΔR pH 8” value [1] is on record?
The value was 9.5.

What about the “BC-1 ΔΔR pH 9” value [1] of the same compound?
The value was 9.4.

What about the “BC-1 ΔΔR pH 10” value [1] of the same compound?
The value was 6.0.

And the “t1/2 at 40° C.” value [2]?
Its value is 15 days.

And the “INK ΔΔB pH 9” value [3]?
Its value is 28.9.

With O=C(Nc1ccccc1NC(=O)c1ccc(C(=O)OO)cc1)c1ccc(C(=O)OO)cc1 [1,2-PCBPD, N,N'-Di(4-percarboxybenzoyl)-1,2-phenylenediamine] as the compound, how does the “BC-1 ΔΔR pH 8” value [1] read?
The value was 4.4.

And the “BC-1 ΔΔR pH 8 (DMF value in parenthesis)” value ([1]; pH 8, peracid predissolved in 1 ml of DMF, 40° C., P-Surf base)?
The value was 8.1.

What about the “BC-1 ΔΔR pH 9” value [1] of the same compound?
Its value is 4.1.

What about the “BC-1 ΔΔR pH 9 (DMF value in parenthesis)” value ([1]; pH 9, peracid predissolved in 1 ml of DMF, 40° C., P-Surf base) of the same compound?
Its value is 6.5.

And the “BC-1 ΔΔR pH 10” value [1]?
Its value is 3.9.

And the “t1/2 at 40° C.” value [2]?
The value was 33 days.

And the “INK ΔΔB pH 9” value [3]?
The value was 24.9.
